According to PubChem BioAssay (NCI):
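48-hour exposure; five concentrations; linearly interpolated endpoints. Here, GI50 denotes the concentration required for 50% inhibition of growth. The concentration for full growth arrest is given as TGI.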

Experiments:
Experiment in all cases: growth of human tumour cells (NCI), 48 h
786-0 renal = system: 786-0 renal
A498 renal = system: A498 renal
A549 NSCLC = system: A549 NSCLC
ACHN renal = system: ACHN renal
BT-549 breast = system: BT-549 breast
CAKI-1 renal = system: CAKI-1 renal
CCRF-CEM leukemia = system: CCRF-CEM leukemia
COLO 205 colon = system: COLO 205 colon
DU-145 prostate = system: DU-145 prostate
EKVX NSCLC = system: EKVX NSCLC
HCC-2998 colon = system: HCC-2998 colon
HCT-116 colon = system: HCT-116 colon
HCT-15 colon = system: HCT-15 colon
HL-60(TB) leukemia = system: HL-60(TB) leukemia
HOP-62 NSCLC = system: HOP-62 NSCLC
HOP-92 NSCLC = system: HOP-92 NSCLC
HS 578T breast = system: HS 578T breast
HT29 colon = system: HT29 colon
IGROV1 ovarian = system: IGROV1 ovarian
K-562 leukemia = system: K-562 leukemia
KM12 colon = system: KM12 colon
LOX IMVI melanoma = system: LOX IMVI melanoma
M14 melanoma = system: M14 melanoma
MALME-3M melanoma = system: MALME-3M melanoma
MCF7 breast = system: MCF7 breast
MDA-MB-231 breast = system: MDA-MB-231 breast
MDA-MB-435 = system: MDA-MB-435
MOLT-4 leukemia = system: MOLT-4 leukemia
NCI-H226 lung = system: NCI-H226 lung
NCI-H23 lung = system: NCI-H23 lung
NCI-H460 lung = system: NCI-H460 lung
NCI-H522 lung = system: NCI-H522 lung
NCI/ADR-RES ovarian = system: NCI/ADR-RES ovarian
OVCAR-3 ovarian = system: OVCAR-3 ovarian
OVCAR-4 ovarian = system: OVCAR-4 ovarian
OVCAR-5 ovarian = system: OVCAR-5 ovarian
OVCAR-8 ovarian = system: OVCAR-8 ovarian
PC-3 prostate = system: PC-3 prostate
RPMI-8226 leukemia = system: RPMI-8226 leukemia
RXF 393 renal = system: RXF 393 renal
SF-268 CNS = system: SF-268 CNS
SF-295 CNS = system: SF-295 CNS
SF-539 CNS = system: SF-539 CNS
SK-MEL-2 melanoma = system: SK-MEL-2 melanoma
SK-MEL-28 melanoma = system: SK-MEL-28 melanoma
SK-MEL-5 melanoma = system: SK-MEL-5 melanoma
SK-OV-3 ovarian = system: SK-OV-3 ovarian
SNB-19 CNS = system: SNB-19 CNS
SNB-75 CNS = system: SNB-75 CNS
SR leukemia = system: SR leukemia
SW-620 colon = system: SW-620 colon
T-47D breast = system: T-47D breast
TK-10 renal = system: TK-10 renal
U251 CNS = system: U251 CNS
UACC-257 melanoma = system: UACC-257 melanoma
UO-31 renal = system: UO-31 renal

SMILES: COC(=O)[C@]12CC[C@@H](C)[C@H](C)[C@@H]1C1=CC[C@@H]3[C@@]4(C)C[C@@H](OC(C)=O)[C@H](O)[C@@](C)(CO)[C@@H]4[C@H](O)C[C@@]3(C)[C@]1(C)CC2
- GI50 (786-0 renal): 14.5 µM
- TGI (786-0 renal): 29.8 µM
- GI50 (A498 renal): 11.9 µM
- TGI (A498 renal): 24.7 µM
- GI50 (A549 NSCLC): 6.39 µM
- TGI (A549 NSCLC): 20.8 µM
- GI50 (ACHN renal): 10.4 µM
- TGI (ACHN renal): 24.5 µM
- GI50 (BT-549 breast): 15 µM
- TGI (BT-549 breast): 29.8 µM
- GI50 (CAKI-1 renal): 10.1 µM
- TGI (CAKI-1 renal): 21.9 µM
- GI50 (CCRF-CEM leukemia): 12.8 µM
- TGI (CCRF-CEM leukemia): 36.5 µM
- GI50 (COLO 205 colon): 11.6 µM
- TGI (COLO 205 colon): 25.9 µM
- GI50 (DU-145 prostate): 13 µM
- TGI (DU-145 prostate): 26.4 µM
- GI50 (EKVX NSCLC): 10.5 µM
- TGI (EKVX NSCLC): 24.6 µM
- GI50 (HCC-2998 colon): 12 µM
- TGI (HCC-2998 colon): 26.7 µM
- GI50 (HCT-116 colon): 11.8 µM
- TGI (HCT-116 colon): 25.4 µM
- GI50 (HCT-15 colon): 7.74 µM
- TGI (HCT-15 colon): 22.9 µM
- GI50 (HL-60(TB) leukemia): 13.9 µM
- TGI (HL-60(TB) leukemia): 31.6 µM
- GI50 (HOP-62 NSCLC): 14.7 µM
- TGI (HOP-62 NSCLC): 29.5 µM
- GI50 (HOP-92 NSCLC): 11.3 µM
- TGI (HOP-92 NSCLC): 24.3 µM
- GI50 (HS 578T breast): 11.9 µM
- TGI (HS 578T breast): 29.6 µM
- GI50 (HT29 colon): 5.79 µM
- TGI (HT29 colon): 20.4 µM
- GI50 (IGROV1 ovarian): 8.87 µM
- TGI (IGROV1 ovarian): 24.8 µM
- GI50 (K-562 leukemia): 9.18 µM
- TGI (K-562 leukemia): 27.4 µM
- GI50 (KM12 colon): 9.95 µM
- TGI (KM12 colon): 26.7 µM
- GI50 (LOX IMVI melanoma): 10.4 µM
- TGI (LOX IMVI melanoma): 23.6 µM
- GI50 (M14 melanoma): 8.14 µM
- TGI (M14 melanoma): 22.2 µM
- GI50 (MALME-3M melanoma): 17.2 µM
- TGI (MALME-3M melanoma): 33 µM
- GI50 (MCF7 breast): 4.95 µM
- TGI (MCF7 breast): 20.9 µM
- GI50 (MDA-MB-231 breast): 8.95 µM
- TGI (MDA-MB-231 breast): 23.4 µM
- GI50 (MDA-MB-435): 12.6 µM
- TGI (MDA-MB-435): 26 µM
- GI50 (MOLT-4 leukemia): 5.82 µM
- TGI (MOLT-4 leukemia): 22 µM
- GI50 (NCI-H226 lung): 16.3 µM
- TGI (NCI-H226 lung): 38.2 µM
- GI50 (NCI-H23 lung): 13.6 µM
- TGI (NCI-H23 lung): 30 µM
- GI50 (NCI-H460 lung): 10.6 µM
- TGI (NCI-H460 lung): 26.3 µM
- GI50 (NCI-H522 lung): 11.2 µM
- TGI (NCI-H522 lung): 26.2 µM
- GI50 (NCI/ADR-RES ovarian): 13.2 µM
- TGI (NCI/ADR-RES ovarian): 29.5 µM
- GI50 (OVCAR-3 ovarian): 13.4 µM
- TGI (OVCAR-3 ovarian): 29.9 µM
- GI50 (OVCAR-4 ovarian): 12 µM
- TGI (OVCAR-4 ovarian): 27 µM
- GI50 (OVCAR-5 ovarian): 13.2 µM
- TGI (OVCAR-5 ovarian): 27.7 µM
- GI50 (OVCAR-8 ovarian): 12.2 µM
- TGI (OVCAR-8 ovarian): 30.4 µM
- GI50 (PC-3 prostate): 7.53 µM
- TGI (PC-3 prostate): 20.5 µM
- GI50 (RPMI-8226 leukemia): 7.86 µM
- TGI (RPMI-8226 leukemia): 31.7 µM
- GI50 (RXF 393 renal): 11 µM
- TGI (RXF 393 renal): 26.4 µM
- GI50 (SF-268 CNS): 10.8 µM
- TGI (SF-268 CNS): 28.2 µM
- GI50 (SF-295 CNS): 11.6 µM
- TGI (SF-295 CNS): 25.1 µM
- GI50 (SF-539 CNS): 14.8 µM
- TGI (SF-539 CNS): 29.4 µM
- GI50 (SK-MEL-2 melanoma): 17.7 µM
- TGI (SK-MEL-2 melanoma): 34.1 µM
- GI50 (SK-MEL-28 melanoma): 13 µM
- TGI (SK-MEL-28 melanoma): 28.6 µM
- GI50 (SK-MEL-5 melanoma): 12.9 µM
- TGI (SK-MEL-5 melanoma): 26 µM
- GI50 (SK-OV-3 ovarian): 16.6 µM
- TGI (SK-OV-3 ovarian): 30.7 µM
- GI50 (SNB-19 CNS): 14.3 µM
- TGI (SNB-19 CNS): 31.3 µM
- GI50 (SNB-75 CNS): 10.2 µM
- TGI (SNB-75 CNS): 23.1 µM
- GI50 (SR leukemia): 7.62 µM
- TGI (SR leukemia): 25.5 µM
- GI50 (SW-620 colon): 16 µM
- TGI (SW-620 colon): 35.6 µM
- GI50 (T-47D breast): 12.4 µM
- TGI (T-47D breast): 28.7 µM
- GI50 (TK-10 renal): 15 µM
- TGI (TK-10 renal): 29 µM
- GI50 (U251 CNS): 10.7 µM
- TGI (U251 CNS): 23.9 µM
- GI50 (UACC-257 melanoma): 13.4 µM
- TGI (UACC-257 melanoma): 28.1 µM
- GI50 (UO-31 renal): 3.58 µM
- TGI (UO-31 renal): 17.1 µM
